Data as given in patent US9708336B2, “Metallo-beta-lactamase inhibitors” (priority 2014, dated 2017).
Read-outs that look alike come from different tables or passages of the source.

Key:
[1] = biological target: NDM-1 (Klebsiella pneumoniae, UniProt C7C422); assay: biochemical; assay type: biochemical; conditions: fluorescence assay with CCF2-FA substrate; read-out: NDM-1 IC50
[2] = biological target: IMP-1 (Serratia marcescens, UniProt P52699); assay: biochemical; assay type: biochemical; conditions: fluorescence assay with CCF2-FA substrate; read-out: IMP-1 IC50
IMP-1, sequence (P52699 whole entry, looked up): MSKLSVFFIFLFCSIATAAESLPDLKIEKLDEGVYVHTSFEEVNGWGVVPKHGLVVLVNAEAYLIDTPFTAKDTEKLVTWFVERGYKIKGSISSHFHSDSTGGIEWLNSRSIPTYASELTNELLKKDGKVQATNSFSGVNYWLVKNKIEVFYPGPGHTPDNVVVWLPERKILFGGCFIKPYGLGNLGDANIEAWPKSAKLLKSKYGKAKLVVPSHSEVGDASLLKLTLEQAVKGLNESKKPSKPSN

[3] = biological target: VIM-1 (Pseudomonas aeruginosa (strain ATCC 15692 / DSM 22644 / CIP 104116 / JCM 14847 / LMG 12228 / 1C / PRS 101 / PAO1), UniProt A0A0F7KYQ8); assay: Enzyme activity: determination of IC50, fluorescence assay with CCF2-FA substrate (VIM-1); assay type: biochemical
Experimental: Enzyme Activity: Determination of IC50
The Class B enzyme activities were measured in the presence of the test inhibitor in a fluorescence assay against a commercially available substrate consisting of a cephalosporin core linking 7-hydroxycoumarin to fluorescein (CCF2-FA). The enzyme (NDM-1, IMP-1 or VIM-1) and the substrate were diluted in 100 mM KH2PO4 buffer (pH 7) containing 0.005% Tween-20 and 10 μM ZnSO4. […] The test inhibitor was dissolved in dimethylsulfoxide and diluted 1:50 in the assay, resulting in a final concentration range of 20 uM to 0.00063 uM. In a 384-well microplate, the test inhibitor was incubated with the metallo-β-lactamase enzyme and the substrate for 2 hours at 25° C. Fluorescence at 460 nm following excitation at 405 nm was measured. The IC50 value was determined from semi-logarithmic plots of enzyme inhibition versus inhibitor concentration, with a curve generated using a 4-parameter fit.

[4] = test system: Escherichia coli expressing NDM-1 (CLB30016); assay: Antibiotic potentiation activity: synergistic concentration (MITC95) with imipenem, OD600 growth; assay type: cell-based; conditions: concentration giving 95% inhibition of bacterial growth
Experimental: (§1) Antibiotic Potentiation Activity: Determination of Synergistic Concentration
(§2) The bacterial strains tested included the clinical strains Escherichia coli expressing NDM-1 (CLB30005, CLB30016), Serratia marcescens expressing IMP-1 (CL5741), and Klebsiella pneumoniae expressing VIM-1 (IHMA599644) Inhibitor activity was measured in the presence and absence of imipenem in a 384-well microplate.
(§3) The clinical strains CLB30016, CL5741 and IHMA599644 were grown on trypticase soy agar containing 5% sheep's blood. The clinical strain CLB30005 was grown on Mueller Hinton broth agar containing 8 ug/ml imipenem. The bacteria on agar plates were incubated at 35° C. with humidity overnight. The following day, individual colonies from each clinical strain were picked and resuspended in 5 ml saline to attain an OD600 of 0.14, 0.11, 0.15 and 0.13, for CLB30005, CLB30016, CL5741 and IHMA599644, respectively. These were further diluted 1:100 into 1.1×CAMHB and used to inoculate the test wells as described below.
(§4) Imipenem in 10 mM 3-(N-morpholino)propanesulfonic acid (MOPS, pH 7) was stored in single use aliquots at −80° C. […] On the day of the assay, 4 μl of antibiotic was added to 45 ul of bacteria followed by 1 μl of test compound and mixed by pipetting and with an orbital shaker. The concentration of antibiotic used in the assay was 4 μg/ml, or optionally 1 μg/ml. Microplates were covered and incubated at 35° C. for 22 hours to 24 hours. At the end of the incubation, absorbance was determined using a spectrophotometer.

[5] = test system: Klebsiella pneumoniae expressing VIM-1 (IHMA599644); assay: as above; assay type: cell-based; conditions: concentration giving 95% inhibition of bacterial growth
Experimental: as §1, §2, §3, §4

[6] = test system: Serratia marcescens expressing IMP-1 (CL5741); assay: as above; assay type: cell-based; conditions: concentration giving 95% inhibition of bacterial growth
Experimental: as §1, §2, §3, §4

[7] = fluorescence assay with CCF2-FA substrate, read-out: VIM-1 IC50
[8] = VIM-1 IC50, fluorescence assay with CCF2-FA substrate

NDM-1, sequence (C7C422 whole entry, looked up, species assumed): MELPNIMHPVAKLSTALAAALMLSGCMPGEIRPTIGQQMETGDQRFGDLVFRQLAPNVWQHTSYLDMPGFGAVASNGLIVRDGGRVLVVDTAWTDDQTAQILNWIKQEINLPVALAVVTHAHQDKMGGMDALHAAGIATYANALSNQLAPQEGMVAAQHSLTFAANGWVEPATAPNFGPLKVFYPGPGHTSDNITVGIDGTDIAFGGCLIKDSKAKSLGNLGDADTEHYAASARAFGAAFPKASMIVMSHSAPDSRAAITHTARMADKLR

Structure (SMILES)	IC50 [1]	IC50 [2]	IC50 [3, 7]	Escherichia coli expressing NDM-1 (CLB 30016) MITC95 [4]	Klebsiella pneumoniae expressing VIM-1 (IHMA 599644) MITC95 [5]	Serratia marcescens expressing IMP-1 (CL5741) MITC95 [6]	IC50 [3, 8]
NS(=O)(=O)c1cccc(-c2cccc3c2NCCC3)c1-c1nnn[nH]1 [Example 121, 3-(1,2,3,4-tetrahydroquinolin-8-yl)-2-(1H-tetrazol-5-yl)benzenesulfonamide]	0.00737 µM	0.373 µM	0.187 µM	3.125 µM	>200 µM	25 µM	
NS(=O)(=O)c1cccc(-c2cnc(N3CCCCC3)nc2)c1-c1nnn[nH]1 [Example 122, 3-(2-(piperidin-1-yl)pyrimidin-5-yl)-2-(1H-tetrazol-5-yl)benzenesulfonamide]	0.00308 µM	0.0631 µM	0.249 µM	4.688 µM	>200 µM	4.688 µM	
NS(=O)(=O)c1cccc(-c2cnc(NC3CC3)nc2)c1-c1nnn[nH]1 [Example 123, 3-(2-(cyclopropylamino)pyrimidin-5-yl)-2-(1H-tetrazol-5-yl)benzenesulfonamide]	0.0083 µM	0.415 µM	0.309 µM	1.563 µM	>200 µM	18.75 µM	
NS(=O)(=O)c1cccc(-c2cnc(NC3CCCC3)nc2)c1-c1nnn[nH]1 [Example 124, 3-(2-(cyclopentylamino)pyrimidin-5-yl)-2-(1H-tetrazol-5-yl)benzenesulfonamide]	0.00434 µM	0.0689 µM	0.259 µM	2.344 µM	>200 µM	6.25 µM	
NS(=O)(=O)c1cccc(-c2cnc(NCCO)nc2)c1-c1nnn[nH]1 [Example 125, 3-(2-((2-hydroxyethyl)amino)pyrimidin-5-yl)-2-(1H-tetrazol-5-yl)benzenesulfonamide]	0.00655 µM	0.326 µM		1.953 µM	25 µM	9.375 µM	0.172 µM
NS(=O)(=O)c1cccc(-c2cnn(CCN3CCOCC3)c2)c1-c1nnn[nH]1 [Example 126, 3-(1-(2-morpholinoethyl)-1H-pyrazol-4-yl)-2-(1H-tetrazol-5-yl)benzenesulfonamide]	0.166 µM	0.864 µM	14.4 µM	6.25 µM	>200 µM	25 µM	
Cn1cc2cc(-c3cccc(S(N)(=O)=O)c3-c3nnn[nH]3)ccc2n1 [Example 127, 3-(2-methyl-2H-indazol-5-yl)-2-(1H-tetrazol-5-yl)benzenesulfonamide]	0.00111 µM	0.157 µM	0.0842 µM	1.172 µM	37.5 µM	4.688 µM	
CN1CCN(c2ncc(-c3cccc(S(N)(=O)=O)c3-c3nnn[nH]3)cn2)CC1 [Example 128, 3-(2-(4-methylpiperazin-1-yl)pyrimidin-5-yl)-2-(1H-tetrazol-5-yl)benzenesulfonamide]	0.00795 µM	0.453 µM	1.14 µM	1.563 µM	>200 µM	9.375 µM	
NS(=O)(=O)c1cccc(-c2cc(F)cc(F)c2)c1-c1nnn[nH]1 [Example 129, 3′,5′-difluoro-2-(1H-tetrazol-5-yl)-[1,1′-biphenyl]-3-sulfonamide]	0.00371 µM	0.176 µM		0.7813 µM	12.5 µM	9.375 µM	0.0379 µM
Nc1[nH]nc2cc(-c3cccc(S(N)(=O)=O)c3-c3nnn[nH]3)ccc12 [Example 131, 3-(3-amino-2H-indazol-6-yl)-2-(1H-tetrazol-5-yl)benzenesulfonamide]	0.0007 µM	0.187 µM	0.0169 µM	0.7813 µM	3.125 µM	3.125 µM	
Nc1[nH]nc2ccc(-c3cccc(S(N)(=O)=O)c3-c3nnn[nH]3)cc12 [Example 132, 3-(3-amino-2H-indazol-5-yl)-2-(1H-tetrazol-5-yl)benzenesulfonamide]	0.00273 µM	0.755 µM	0.0267 µM	1.172 µM	6.25 µM	12.5 µM	
Nc1cc(-c2cccc(S(N)(=O)=O)c2-c2nnn[nH]2)cc(N)n1 [Example 133, 3-(2,6-diaminopyridin-4-yl)-2-(1H-tetrazol-5-yl)benzenesulfonamide]	0.0215 µM	4.92 µM	0.108 µM	0.3906 µM	6.25 µM	37.5 µM	
Nc1nc2c(-c3cccc(S(N)(=O)=O)c3-c3nnn[nH]3)cccc2s1 [Example 134, 3-(2-aminobenzo[d]thiazol-4-yl)-2-(1H-tetrazol-5-yl)benzenesulfonamide]	0.00028 µM	0.0226 µM	0.0111 µM	0.5859 µM	3.125 µM	0.7813 µM	
COc1cc(-c2cccc(S(N)(=O)=O)c2-c2nnn[nH]2)ccn1 [Example 135, 3-(2-methoxypyridin-4-yl)-2-(1H-tetrazol-5-yl)benzenesulfonamide]	0.00447 µM	0.0626 µM	0.0619 µM	1.172 µM	18.75 µM	1.172 µM	
N#Cc1cncc(-c2cccc(S(N)(=O)=O)c2-c2nnn[nH]2)c1 [Example 136, 3-(5-cyanopyridin-3-yl)-2-(1H-tetrazol-5-yl)benzenesulfonamide]	0.0248 µM	1.69 µM	0.15 µM	1.563 µM	37.5 µM	25 µM	
Nc1cncc(-c2cccc(S(N)(=O)=O)c2-c2nnn[nH]2)n1 [Example 137, 3-(6-aminopyrazin-2-yl)-2-(1H-tetrazol-5-yl)benzenesulfonamide]	0.0307 µM	2.53 µM	0.561 µM	1.172 µM	25 µM	25 µM	
